Experimental data reported in US8741836B2, “Polypeptides” (Novo Nordisk A/S, priority 2011, dated 2014).
Starred links: 1 amine or outer side, 2 acyl side, 3 side chain; linkers in the order of their positions; H or OH if unused. Positions of bridges follow the written chain, without caps; N, C: chain ends. Residues, ends and D or L forms follow the SMILES beside them. *: point of attachment. C20 diacid = O=C(O)CCCCCCCCCCCCCCCCCCC(=O)*; γGlu = O=C(O)[C@H](CCC(=O)[*:2])N[*:1]

Assay: Assay (III) ThT fibrillation assay for physical stability
Format: physicochemical
Conditions: pH 4.0, ThT fibrillation assay
How it was run: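 Freshly prepared, pH-adjusted formulations with 1 μM ThT incubated at 37 °C under 960 rpm orbital shaking (1 mm), fluorescence (ex 444, em 485 nm) read every 20 min. […] Peptide content before and after measured by reverse-phase HPLC against pramlintide standard.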

SMILES | ThT pH 4.0 lag time
CC[C@H](C)[C@H](NC(=O)[C@@H]1CCCN1C(=O)CNC(=O)[C@H](Cc1ccccc1)NC(=O)[C@H](CC(N)=O)NC(=O)[C@H](CC(N)=O)NC(=O)[C@H](CO)NC(=O)[C@H](CO)NC(=O)[C@H](Cc1c[nH]cn1)NC(=O)[C@H](CCCNC(=N)N)NC(=O)[C@H](CC(C)C)NC(=O)[C@H](Cc1ccccc1)NC(=O)[C@H](CCC(=O)O)NC(=O)[C@H](C)NC(=O)[C@H](CC(C)C)NC(=O)[C@H](CCCNC(=N)N)NC(=O)[C@H](CCC(N)=O)NC(=O)[C@@H](NC(=O)[C@H](C)NC(=O)[C@@H]1CSSC[C@H](NC(=O)[C@H](CCCCN)NC(=O)[C@H](Cc2c[nH]cn2)NC(=O)CC[C@H](NC(=O)CCCCCCCCCCCCCCCCCCC(=O)O)C(=O)O)C(=O)N[C@@H](CC(N)=O)C(=O)N[C@@H]([C@@H](C)O)C(=O)N[C@@H](C)C(=O)N[C@@H]([C@@H](C)O)C(=O)N1)[C@@H](C)O)C(=O)N[C@@H](CC(C)C)C(=O)N1CCC[C@H]1C(=O)N1CCC[C@H]1C(=O)N[C@H](C(=O)N[C@@H](CC(N)=O)C(=O)N[C@H](C(=O)NCC(=O)N[C@@H](CO)C(=O)N[C@@H](Cc1c[nH]cn1)C(=O)N[C@H](C(=O)N[C@@H](Cc1ccc(O)cc1)C(N)=O)[C@@H](C)O)C(C)C)[C@@H](C)O [Example 68, N-alpha-[(S)-4-Carboxy-4-(19-carboxynonadecanoylamino)butyryl]-His-[Glu14,Arg17,His35]-pramlintide] ({C20 diacid-γGlu}-HKCNTATCATQRLAEFLRHSSNNFGPILPPTNVGSHTY-NH2; disulfide 3-8 (inferred); C-terminus assumed) | >45 h
CC[C@H](C)[C@H](NC(=O)[C@@H]1CCCN1C(=O)CNC(=O)[C@H](Cc1ccccc1)NC(=O)[C@H](CC(N)=O)NC(=O)[C@H](CC(N)=O)NC(=O)[C@H](CO)NC(=O)[C@H](CO)NC(=O)[C@H](Cc1c[nH]cn1)NC(=O)[C@H](CCCNC(=N)N)NC(=O)[C@H](CC(C)C)NC(=O)[C@H](Cc1ccccc1)NC(=O)[C@H](CCC(=O)O)NC(=O)[C@H](C)NC(=O)[C@H](CC(C)C)NC(=O)[C@H](CCCNC(=N)N)NC(=O)[C@H](CCC(N)=O)NC(=O)[C@@H](NC(=O)[C@H](C)NC(=O)[C@@H]1CSSC[C@H](NC(=O)[C@H](CCCCN)NC(=O)[C@H](Cc2c[nH]cn2)NC(=O)[C@H](Cc2c[nH]cn2)NC(=O)CC[C@H](NC(=O)CCCCCCCCCCCCCCCCCCC(=O)O)C(=O)O)C(=O)N[C@@H](CC(N)=O)C(=O)N[C@@H]([C@@H](C)O)C(=O)N[C@@H](C)C(=O)N[C@@H]([C@@H](C)O)C(=O)N1)[C@@H](C)O)C(=O)N[C@@H](CC(C)C)C(=O)N1CCC[C@H]1C(=O)N1CCC[C@H]1C(=O)N[C@H](C(=O)N[C@@H](CC(N)=O)C(=O)N[C@H](C(=O)NCC(=O)N[C@@H](CO)C(=O)N[C@@H](Cc1c[nH]cn1)C(=O)N[C@H](C(=O)N[C@@H](Cc1ccc(O)cc1)C(N)=O)[C@@H](C)O)C(C)C)[C@@H](C)O [Example 69, N-alpha-[(S)-4-Carboxy-4-(19-carboxynonadecanoylamino)butyryl]-His-His-[Glu14,Arg17,His35]-pramlintide] ({C20 diacid-γGlu}-HHKCNTATCATQRLAEFLRHSSNNFGPILPPTNVGSHTY-NH2; disulfide 4-9) | >45 h
